Legend:
[1] = tested on: Peritoneal exudate cells (PECs); assay: TLR agonist induced cytokines (ELISA) of peritoneal exudate cells from treated mice; assay type: in vivo; details: TriDAP 100 μg/mouse/day i.p. 5 days vs PBS; LPS, CpG or Pam3Csk; 24 hours
Experimental: Mice were treated with either PBS or TriDAP (100 μg/mouse/day i.p.) for 5 days. Peritoneal exudate cells (PECs; 1×10^6/ml) were stimulated with medium alone (control), or with a Toll-like Receptor agonist selected from the following: the TLR4 agonist LPS (lipopolysaccharide) (100 ng/ml), the TLR9 agonist CpG (5 μg/ml), or the TL2 agonist Pam3Csk (500 ng/ml). Supernatants were collected after 24 hours and cytokine concentrations were quantified by ELISA.

BMDC [2] = assay: IL-12p40, IL-23, IL-12p70 and IL-10 ELISA in BMDC with p38 or ERK inhibitor, Tri-DAP and LPS or CpG; assay type: cell-based, murine
Experimental: BMDC (1×10^6) were pretreated with the p38 inhibitor, SB203580 (5 μM—FIGS. 10-11), or the ERK inhibitor UO126 (5 μM—FIGS. 12-13) for 30 minutes prior to stimulation with Tri-DAP (100 μg/ml) or medium alone. After 2 hours the cells were then stimulated with LPS (100 ng/ml—FIGS. 10 and 12), with the TLR agonist CpG (5 μg/ml—FIGS. 11 and 13) or with medium alone. Supernatants were collected after 24 hours and IL-12p40, IL-23, IL-12p70 and IL-10 concentrations were quantified by ELISA.

[3] = tested on: IL-17-expressing and IFN-γ-expressing T cells in the brains of mice with EAE; assay: Intracellular IFN-γ and IL-17 staining (flow cytometry) of brain mononuclear cells of EAE mice; assay type: in vivo; details: CD3+, CD3+ CD4+ and CD3+ CD4− cells; 12 days post EAE induction; PMA/ionomycin
Experimental: Mononuclear cells were isolated from the brains of control EAE or Tri-DAP treated EAE mice 12 days post EAE induction. Cells were restimulated overnight with PMA/ionomycin and incubated with Brefeldin A. Cells were stained with anti-CD3 (FIG. 4), or anti-CD3 and anti-CD4 (FIGS. 5 and 6). Cells were then fixed and permeabilized, stained intracellularly with anti-IFN-γ and anti-IL-17 and analysed by flow cytometry.

[4] = tested on: dendritic cells activating Th17 cells; assay: IL-17 of CD4 T cells cultured with LPS-stimulated dendritic cells with and without TriDAP; assay type: cell-based, mice; details: TriDAP 100 μg/ml; LPS 10 or 100 ng/ml; KLH 20 μg/ml; 72 hours
Experimental: CD4 T cells from mice immunized with MOG and LPS, were cultured in vitro with dendritic cells stimulated with LPS (10 or 100 ng/ml) with and without TriDAP (100 μg/ml) in the presence of KLH (20 μg/ml). Supernatants were collected after 72 hours and IL-17 concentrations were quantified by ELISA. *P<0.05, ***P<0.001, with and without TriDAP.

[5] = tested on: experimental autoimmune encephalomyelitis (EAE) in C57BL/6 mice; assay: EAE induced with MOG35-55/CFA and pertussis toxin, clinical score and body weight; assay type: in vivo
Experimental: EAE was induced in C57BL/6 mice by subcutaneous (s.c) injection with 150 μg of MOG35-55 in CFA supplemented with 4 mg/ml H37 Ra M. tuberculosis on day 0. All mice were injected intra-peritoneally (i.p) with Pertussis toxin (PT) on days 0 and 2. One group of mice were untreated and the second group were given Tri-DAP (100 μg/mouse) on day 0 in MOG/CFA emulsion and again on days 1, 2 and every 2 days thereafter. Clinical scores were assessed daily and body weights were recorded. Disease severity was graded as follows: grade 0: normal, grade 1: limp tail, grade 2: wobbly gait; grade 3: hind limb weakness; grade 4: hind limb paralysis; grade 5: tetraparalysis/death. † indicates control mice were sacrificed due to severity of EAE disease.

BMDC [6] = assay: EBI3 and IL-27p28 mRNA in BMDC pretreated with MAPK/MEK1/2 inhibitors, then TriDAP and LPS or CpG; assay type: cell-based, murine
Experimental: BMDC (1×10^6) were pretreated with either the MAPK inhibitor, SB203580 ([…]) or the MEK1/2 inhibitor, U0126 ([…]) for 30 minutes prior to stimulation with TriDAP […] or medium alone. After 24 hours the cells were then stimulated with LPS (lipopolysaccharide) (100 ng/ml), CpG ([…]) or medium alone. EBI3 and IL-27p28 mRNA were evaluated by real time PCR normalized to 18S rRNA. Data are shown as fold induction over DC cultured in medium only (FIG. 9 (a) and FIG. 9 (b)).

[7] = Tri-DAP 100 μg/ml pretreatment, LPS 100 ng/ml or CpG 5 μg/ml, 24 hours
[8] = U0126 (5 mM) 30 minutes before TriDAP, LPS 100 ng/ml after 24 hours

C[C@H](N)C(=O)N[C@H](CCC(=O)N[C@@H](CCC[C@@H](N)C(=O)O)C(=O)O)C(=O)O [Tri-DAP, L-alanyl-γ-D-glutamyl-meso-diaminopimelic acid]
IL-10 secreted by PEC after re-stimulation with TLR agonists [1]: higher concentrations | TGF-beta secreted by PEC after re-stimulation with TLR agonists [1]: higher concentrations | LPS and CpG production of IL-12p40 (BMDC [2]; [7]): enhances | LPS and CpG production of IL-12p70 (BMDC [2]; [7]): enhances | LPS and CpG production of IL-23 (BMDC [2]; [7]): enhances | LPS and CpG induced IL-10 production (BMDC [2]; Tri-DAP 100 μg/ml, LPS 100 ng/ml or CpG 5 μg/ml, 24 hours): enhanced | enhancement of LPS and CpG induced IL-10 production when p38 is inhibited (BMDC [2]; p38 inhibitor SB203580 5 μM): completely abolished | synergy of Tri-DAP with LPS or CpG (IL-12 family), dependence on p38 (BMDC [2]; p38 inhibitor SB203580 5 μM): partially dependent on p38 | IFN-γ production by brain T cells [3]: suppressed | IL-17 production by brain T cells [3]: suppressed | ability of dendritic cells to activate IL-17 production by CD4 T cells [4]: significant reduction | weight loss ([5]; C57BL/6 EAE mice, Tri-DAP 100 μg/mouse vs untreated control): dramatic weight loss in the control mice when compared to the Tri-DAP treated mice | first clinical signs of EAE disease ([5]; C57BL/6 mice, Tri-DAP 100 μg/mouse day 0 in MOG/CFA emulsion, days 1, 2 and every 2 days, untreated mice 5-6 days): 11 days post induction | severity of EAE disease (clinical score) ([5]; C57BL/6 mice, Tri-DAP 100 μg/mouse, untreated peaked at 3.5-4 by day 12): lower than that observed in the untreated control mice | Tri-DAP synergy with LPS for EBI3 gene expression under inhibition of ERK (BMDC [6]; [8]): greatly enhances | Tri-DAP synergy with LPS for IL-27p28 gene expression under inhibition of ERK (BMDC [6]; [8]): greatly enhances | Tri-DAP induced or Tri-DAP and TLR agonist induced IL-27 production on addition of an ERK inhibitor (BMDC [6]; dendritic cells, ERK inhibitor added): significantly enhances

Source: patent publication US20110294736A1, “COMPOUNDS AND METHODS FOR THE TREATMENT OF AUTOIMMUNE AND INFLAMMATORY DISEASE” (THE PROVOST, FELLOWS AND SCHOLARS OF THE HOLY AND UNDIVIDED …, priority 2008, published 2011)
